# Values quoted from earlier work, collected in patent US20110008426A1, “MODIFIED RELEASE PHARMACEUTICAL COMPOSITIONS COMPRISING MYCOPHENOLATE AND PROCESSES THEREOF” (priority 2008, published 2011).
# Values joined by “and” are separate entries in the source; they are usually repeats but may differ in a detail not shown here. Identical values can stand only once. Like-named read-outs stand apart in the source and are kept apart here.
# Assays:
# [1] = MMF 1 g b.i.d; EC-MPS 720 mg b.i.d
# [2] = not given; remark: listed apart in the source
# [3] = 423 de novo kidney allograft recipients
# [4] = not given; remark: listed apart in the source
# [5] = transplant patients, acute rejection
# [6] = controlled de novo and maintenance renal studies, patients
SMILES,adverse effects: blood and lymphatic system disorders (www.rxlist.com) [%],adverse effects: constipation (www.rxlist.com) [%],adverse effects: diarrhea (www.rxlist.com) [%],adverse effects: nausea (www.rxlist.com) [%],adverse effects: urinary tract infections (www.rxlist.com) [%],adverse effects: vomiting (www.rxlist.com) [%],Cmax of MPA [1] [ng/mL],"Adverse Events: Anemia [2, 6] [%]","Adverse Events: Constipation [2, 6] [%]","Adverse Events: Diarrhoea [2, 6] [%]","Adverse Events: Dyspepsia [2, 6] [%]","Adverse Events: Insomnia [2, 6] [%]","Adverse Events: Leukopenia [2, 6] [%]","Adverse Events: Nausea [2, 6] [%]","Adverse Events: Urinary Tract Infection [2, 6] [%]","Adverse Events: Vomiting [2, 6] [%]",incidence of GI adverse events [3] [%],also measured
"COc1c(C)c2c(c(O)c1C/C=C(\C)CCC(=O)OCCN1CCOCC1)C(=O)OC2 [MMF, mycophenolate mofetil]",42.4,39.5,24.8,27.1,33.3,20,21300,21.6,38.0,24.8,22.5,23.5,19.2,29.1,29.1,20,77.1,"adverse effects: CMV infection (www.rxlist.com): 18.1%; Adverse Events: CMV infections [2, 6]: 20.2%"
"COc1c(C)c2c(c(O)c1C/C=C(\C)CCC(=O)O)C(=O)OC2 [MPS, mycophenolate sodium]",41.8,38,23.5,29,29.1,23,18930,21.9,39.5,23.5,19,23.8,20.5,27.1,33.3,23,79.8,adverse effects: CMV infection (in vivo): 20.2%; Adverse Events: CMV infections ([2]; in vivo): 18.1%; solubility of the drug ([4]; pH above 6.0): high solubility; solubility of the drug ([4]; pH below 6.0): poor solubility
"COc1c(C)c2c(c(O)c1C/C=C(\C)CCC(=O)O)C(=O)OC2 [mycophenolic acid, Mycophenolic acid]",–,–,–,–,–,–,–,–,–,–,–,–,–,–,–,–,–,mycophenolic acid AUC expected to yield 50% of maximal achievable efficacy [5]: 15 µg·h/mL; mycophenolic acid AUC that would yield 90% efficacy [5]: 25 µg·h/mL and 40 µg·h/mL
